Measurements as given in a melting point compilation (Tetko et al.; mined from patent text by program, amines drawn as free bases though some values may be those of a salt).

| Structure (SMILES) | melting point |
| --- | --- |
| COCCCNc1nc(N)c(SC)c(F)n1 | 48 to 64 °C |
| CCOC(=O)C=Cc1cc(C=CC(=O)OC(C)(C)C)cc(Oc2cccnc2)c1 | 116 to 118 °C |
| CC1CC2C3CCC4=CC(=O)C=CC4(C)C3=CCC2(C)C1(O)C#N (centres undefined) | 241 to 248 °C |
| O=C(OCc1cc2c3ccccc3[nH]c(=O)n2n1)c1ccccc1 | 262 to 265 °C |
| COc1ccc2nccc(NC(=O)N3CCN(CC(=O)c4cnc5ccccc5n4)CC3)c2n1 | 167 to 169 °C |
| COC(=O)c1cc(OCc2nc(-c3ccccc3)oc2C)no1 | 123 to 124 °C |
| O=C(O)CCc1cnoc1-c1ccc(Cl)c(Cl)c1 | 171 to 172 °C |
| CCN(CC)Cc1nc(-c2ncn3c2CN(C)C(=O)c2cc(F)ccc2-3)no1 | 172 to 174 °C |
| CCN(CC)CCCN(Cc1ccc(COc2cccc3c2CN(C2CCC(=O)NC2=O)C3=O)cc1)C(=O)OC(C)(C)C (centres undefined) | 140 to 142 °C |
| Nc1ncccc1C(=O)NCC1CCN(CC2COc3ccc(F)cc3O2)CC1 (centres undefined) | 141 to 143 °C |
| Cc1nc(-n2ccc(OCc3cccnc3)cc2=O)sc1C(=O)NCc1ccccc1 | 214 to 216 °C |
| N=C(N)NCCc1ccc(OCCC2Oc3ccccc3N(Cc3cccc4ccccc34)C2=O)cc1 (centres undefined) | 75 to 80 °C |
| COC(=O)c1cc(-c2ccc(OCc3ccccc3)cc2)n(-c2ccc(S(N)(=O)=O)cc2)n1 | 196 to 198 °C |
| CCC(C)(C)c1ccc(Oc2ccc(C(=O)c3ccc(Oc4ccc(C(C)(C)CC)cc4C(C)(C)CC)cc3)cc2)c(C(C)(C)CC)c1 | 54 to 56 °C |
| COc1ccc(C2COc3cc(OC(=O)C(C)(C)C)ccc3C2(O)Cc2ccc(OCc3ccccc3)cc2)cc1 (centres undefined) | 104 to 111 °C |
| COc1ccc(C2=NN(Cc3ccccc3)C(=O)[C@H]3CCCC[C@@H]23)cc1OC (relative stereo) | 86 to 88 °C |
| C#CCN1C(=O)N(c2ccc(C#N)c(C(F)(F)F)c2)C(=O)C1(CO)CO | 125 to 126 °C |
| CCCNC(=O)C(C)=Cc1ccc2c(c1)c(Cc1ccc(C(=O)OC)cc1OC)cn2CC(=O)N(C)C | 117 to 118 °C |
| S=C(NN=Cc1cccc(-c2ccc(Cl)cc2Cl)n1)NN1CCCC1 | 155 to 156 °C |
| CC(=O)On1c(=N)n[n+]([O-])c2ccccc21 | 194 to 196 °C |
| CS(=O)(=O)c1ncc2n1-c1ccc(Cl)cc1C(c1ccccc1F)=[N+]([O-])C2 | 219 to 220 °C |
| CCOC(=O)c1[nH]c2ccc(Cl)cc2c1S(=O)(=O)c1ccccc1 | 201 to 202 °C |
| Cc1c(-c2ccccc2)c(N2CC[C@H](N(C)C)C2)c2oc(-c3ccccc3N)nc2c1C#N | 259 to 263 °C |
| O=C(COc1noc(-c2ccccc2)c1Cl)NCCO[N+](=O)[O-] | 138 to 139 °C |

| Structure (SMILES) | melting point |
| --- | --- |
| Cc1cc(C)nc(NC(=O)NS(=O)(=O)c2cccn2CCC#N)n1 | 158 to 159 °C |
| O=C1c2ccccc2C(=O)N1CCCS(=O)(=O)c1ccc(Cl)cc1 | 188 °C |
| Cc1cc(C)nc(NC(=O)NS(=O)(=O)C2CCCCCCCCCCC2Cl)n1 (centres undefined) | 84 °C |
| CNCc1ccccc1-c1ccc(C(=O)N2Cc3ccc(C(=O)NCc4cccnc4)n3Cc3ccccc32)cc1 | 149 to 150 °C |
| CCCN(CCCC12CC3CC(CC(C3)C1)C2)C(=O)NCc1ccncc1 | 96 to 98 °C |
| CC(C)c1cccc(-c2ccc(C(=O)NO)nc2)c1 | 130 to 135 °C |
| CCOC(=O)Cc1c(C(=O)O)c2cc(Oc3ccc(C(F)(F)F)cn3)ccc2n1-c1ccc(OC(C)C)cc1 | 202 °C |
| CCCCCCNC(=S)NN=C(CCCCl)c1ccccc1 | 42 to 44 °C |
| CCOC(=O)C(=NOC)C1=CSCCN1C=O | 94 to 96 °C |
| CSc1nc(O)c(-c2ccccc2F)c(O)n1 | > 240 °C |
| N#CC(Cc1c[nH]cn1)(c1ccccc1)c1ccc(Br)cc1 (centres undefined) | 121 to 124 °C |
| O=[N+]([O-])C=C1C[N+]([O-])=C(c2ccccc2F)c2cc([N+](=O)[O-])ccc2N1 | 216 to 220 °C |
| CCCOC(=O)c1cc(NC(=O)c2ccccc2O)cc(Br)c1O | 198 to 200 °C |
| Nc1c(I)c(C(=O)NCC(O)CO)c(I)c(C(=O)NCC(O)CO)c1I (single isomer, unassigned; (-)) | 203 °C |
| CCCCCCC(=S)SCCCC | 46 to 47 °C |
| OC(Cn1ccnc1)(c1ccc(Cl)cc1)C1(Oc2ccc(Cl)cc2)CC1 (centres undefined) | 172 to 173 °C |
| Cc1ccc(C)c(NC(=O)OC(C)(C)C)c1 | 103 to 104 °C |
| CCC(=O)N(C(=O)CC)c1c(OCc2ccccc2)cc(Br)cc1[N+](=O)[O-] | 90 to 92 °C |
| COC(=O)CCC(=O)OCC(C)(C)Oc1ccc2c(c1)CCc1c-2ccc2c1CCC2(C)C | 58 to 60 °C |
| CCOC(=O)c1ccc(Cc2nc3n(-c4c(Cl)cc(Cl)cc4Cl)[nH]c(C(C)C)c-3c(=O)n2)cc1 | 233 to 235 °C |
| CS(=O)(=O)Nc1cc2occ(Nc3ccccc3)c(=O)c2cc1Oc1ccccc1 | 212 to 213 °C |
| O=c1[nH]c(=O)n(C2CC(O)C(CO)O2)cc1C#CI (centres undefined) | 135 to 137 °C |
| COC(=O)c1ccc(SCc2c(O[C@H](Cn3ccnc3)c3ccccc3)ccc3c2CCCC3=O)cc1 | 75 °C |
| Cc1ccc(Cl)cc1N1C(=O)CON(C)C1=S | 100 to 102 °C |

| Structure (SMILES) | melting point |
| --- | --- |
| CC(C)CC(NC(=O)Cc1cccc2ccccc12)C(=O)NC(Cc1ccccc1)C(=O)CSCc1ccco1 (centres undefined) | 143 to 146 °C |
| O=c1[nH]c2cc(C(F)(F)F)c(N3CCOCC3)cc2n2c(=O)[nH]nc12 | > 300 °C |
| COC(=O)Cc1ccc(OC(=S)N(C)C)cc1F | 113 to 114 °C |
| O=C(O)Cn1cc(Cc2nc3cc(C(F)(F)F)ccc3s2)c2ccccc21 | 233 to 234 °C |
| CC1(C)CC(C)(c2ccc(Oc3ccc(N)cc3)cc2)c2cc(Oc3ccc(N)cc3)ccc21 (centres undefined) | 135 to 136 °C |
| Cn1c(=O)cc(C(F)(F)F)[nH]c1=O | 235 to 237 °C |
| CC(Sc1nc(N)cc(Cl)n1)c1cc2ccccc2cn1 (centres undefined) | 179 to 180 °C |
| COC(=O)C1=Cc2cc(Br)ccc2SCC1 | 94 to 95 °C |
| CCCNc1nc(C#N)c(C#N)nc1-c1ccccc1 | 136 to 137 °C |
| CCCc1nc2cccc(C(=S)OC)c2n1Cc1ccc(-c2ccccc2)c(-c2nc(=O)o[nH]2)c1 | 220 to 221 °C |
| N#Cc1cnc2cc3ccc(O)cc3cc2c1Nc1ccc(Cl)cc1Cl | > 300 °C |
| CC1CCN(c2cc(F)cc(C(=O)Nc3ccc(OCc4n[nH]c(=O)n4-c4ccccc4)c4ccccc34)c2)CC1 | 140 to 143 °C |
| CCCc1nn(-c2ccc(C(F)(F)F)cn2)cc1CCCOc1ccc(F)c(CC(=O)O)c1 | 111 to 112 °C |
| Cc1nc2c(OCc3c(Cl)ccc(N(C)C(=O)CNC=O)c3Cl)cccn2c1Br | 211 to 212 °C |
| Cc1nn(-c2ccc(C(=O)O)cc2)c(O)c1-c1c(C)nn(-c2ccc(C(=O)O)cc2)c1O | > 280 °C |
| COc1c(Cl)c(Cl)c2c(-c3ccccc3F)noc2c1Cl | 120 to 140 °C |
| CC(=O)c1ccc(NC(=O)c2cc(Cl)cc(Cl)c2)cc1 | 199 to 200 °C |
| CC(CN(C)C)N1c2ccccc2Sc2ccc(C(=S)NCC3CCCCC3)cc21 (racemic) | 167 °C |
| CCc1nnc2nc(-c3cccc(C(F)(F)F)c3)ccn12 | 223 to 224 °C |
| CCCc1c(OCCCCCOc2ccc3ccc(OCC(=O)OCC)cc3c2CCC(=O)OCC)ccc2c1OCCC2=O | 68 to 69.5 °C |
| O=C(Nc1cccc(C(F)(F)F)c1)c1cccc2cc(Oc3cc(CO)ncn3)ccc12 | 183 to 184 °C |
| CN1CCC(Oc2ccc(N)cc2)(c2ccccc2)CC1 | 174 to 175 °C |
| CCc1nc2c(cnn2CC)c(NC2CCOCC2)c1CNC(=O)c1cccc(C(=O)O)c1 | 207 to 209 °C |
| CCOC(=O)CN1C[C@@H](C(N)=O)N(CC(=O)OCC)C[C@@H]1C(N)=O | > 260 °C |

| Structure (SMILES) | melting point |
| --- | --- |
| CCn1nc2c(N)nc3ccccc3c2c1CC1(F)CCN(S(C)(=O)=O)CC1 | 269 to 271 °C |
| CCOC(=O)C1=Cc2ccsc2S(=O)(=O)N1CCCOC | 82 to 83 °C |
| O=C(OC1C(O)COC(Oc2ccc([N+](=O)[O-])cc2)C1OC(=O)c1ccccc1)c1ccccc1 (centres undefined) | 150 to 151 °C |
| CNC(=O)C(=NO)c1ccccc1Oc1ccccc1 | 183 to 184 °C |
| Cn1ncc2c(C(F)(F)F)cc(Cl)nc21 | 123 °C |
| CCOC(=O)c1ccc2c(c1)C(c1ccc(O)cc1)(c1ccc(O)cc1)c1ccccc1-2 | 280 °C |
| O=C(O)c1ccc(-c2ccc(NC(=O)C(F)(F)F)cc2)[nH]c1=O | > 270 °C |
| O=S(=O)(Nc1cccc(OCc2ccc3ccccc3n2)c1)C(F)(F)F | 144 to 146 °C |
| COc1cc(C(=O)N2CC3CC(C2)CN(C(C)C)C3)cc(OC)c1OC | 67.5 to 69.5 °C |
| COc1ccc2c(c1)c(CC(=O)OCC(=O)O)c(C)n2C(=O)c1c(F)cccc1F | 186 °C |
| O=[N+]([O-])c1ccc2sc(CCl)cc2c1 | 110 to 112 °C |
| Nc1ncc(-c2ccc(F)cc2)nc1C(=O)Nc1cccnc1 | 193 to 197 °C |
| CCOc1ccc(C(=O)c2csc(-c3ccc(OCC)c(OCC)c3)n2)cc1OCC | 128 to 129 °C |
| CN(C)C1=NC(=O)C(Cc2cccc(-c3ccc(O)c(C45CC6CC(CC(C6)C4)C5)c3)c2)S1 (centres undefined) | 243 to 246 °C |
| O=C(CCCCOc1ccc(-c2ccccc2)cc1)NO | 152 to 154 °C |
| O=C(O)c1nc(-c2ccccc2Cl)nc2ccccc12 | 171 °C |
| CC(C)c1ccc(N(Cc2ccc(N(C)C)cc2)C(=O)C2CCc3c(O)cccc32)cc1 (centres undefined) | 158 to 160 °C |
| O=C1NC(=O)C(=Cc2ccc(-c3ccc(O)c(C45CC6CC(CC(C6)C4)C5)c3)cc2)S1 | 307 to 308 °C |
| N#Cc1ccn2c1CSC2c1cccnc1 (centres undefined) | 110 °C |
| O=[N+]([O-])c1ccc(C2OCc3cc(Br)ccc3O2)cc1 (centres undefined) | 163 to 164 °C |
| CCCCCCc1ccc(-n2c(-c3ccc(C)cc3)ccc2-c2ccc(C)cc2)cc1 | 147 to 148 °C |
| CCCOC(=O)c1cccc2c1S[C@@H](c1ccc(OC)cc1)[C@@H](OC(C)=O)C(=O)N2CCN(C)C (racemic) | 107 to 109 °C |
